Test results as given in BindingDB's records for doi:10.1016/s0960-894x(02)00371-2 (Neurocrine Biosciences, 2002).

Target: Gonadotropin-releasing hormone receptor (Rattus norvegicus) (UniProt P30969)
Experiment: Compound was evaluated in cloned rat Gonadotropin-releasing hormone receptor assay for its ability to displace the binding of [125 I-Tyr, DLeu, NMeLeu, Pro-NEt]GnRH agonist

Sequence of Gonadotropin-releasing hormone receptor (Rattus norvegicus) (P30969 whole entry, looked up): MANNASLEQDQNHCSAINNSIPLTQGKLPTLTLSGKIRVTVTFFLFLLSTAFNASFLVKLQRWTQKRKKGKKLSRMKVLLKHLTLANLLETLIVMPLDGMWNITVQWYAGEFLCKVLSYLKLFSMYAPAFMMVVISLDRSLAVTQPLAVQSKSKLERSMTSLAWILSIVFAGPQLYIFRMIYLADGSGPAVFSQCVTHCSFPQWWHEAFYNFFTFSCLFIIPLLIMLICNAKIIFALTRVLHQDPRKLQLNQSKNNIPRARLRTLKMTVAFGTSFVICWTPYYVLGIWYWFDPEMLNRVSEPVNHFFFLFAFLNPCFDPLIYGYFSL

- Ki: 12 µM
Compound: COc1ccc(-c2nc3n(Cc4ccccc4F)c(C)c(-c4ccc5c(c4)OCO5)c(=O)n3c2CN(C)CCc2ccccn2)cc1 [6-Benzo[1,3]dioxol-5-yl-8-(2-fluoro-benzyl)-2-(4-methoxy-phenyl)-7-methyl-3-{[methyl-(2-pyridin-2-yl-ethyl)-amino]-methyl}-8H-imidazo[1,2-a]pyrimidin-5-one]
